Experimental data as given in PMC13195669, “GPR3 Ligands Discovered through Combined Virtual and Conformational Biosensor-Based Screening” (Journal of the American Chemical Society, 2026).

Target: T1, GPR3 (Homo sapiens, UniProt P46089)
T1 construct: host or cells: HEK293A, transient
Test: FRET/BRET cAMP biosensor in HEK293A cells cotransfected with GPR3
Assay type: cell-based
Conditions: for GPR3-dependent change in cAMP: cAMP biosensor, pcDNA vs GPR3 transfected HEK293A
Description: With the first GPR3 ligands identified by using a conformational readout in our hands, we next wanted to understand whether these compounds could have been detected in a cAMP-based assay, which has been used extensively in the past to screen for GPR3 ligands. We therefore tested rac-VH1/52, VH2/93 and VH3/115 in cells expressing a cAMP biosensor.
3 Effect of rac-VH1/52, VH2/93 and VH3/115 on GPR3-dependent cAMP production. (a–c) Vehicle-corrected BRET changes induced by rac-VH1/52 (a), VH2/93 (b) or VH3/115 (c) in HEK293A cells transiently transfected with a cAMP BRET sensor along with pcDNA or GPR3. […] Statistical significance was tested using Two-Way ANOVA followed by Sidak multiple comparison (*: […]; **: p < 0.01). […]
Plasmids and molecular cloning
The H187-EPAC-FRET sensor7 was kindly provided by K. Jalink (The Netherlands Cancer Institute, Amsterdam, The Nether-lands). The BRET-based cAMP sensor CAMYEL8 was kindly provided by Laura Humphrys (University of Regensburg, Regens-burg, Germany). Plasmids encoding the conformational biosensors α2AAR- and β2AR-HaloTag/Nluc9 and the Gs heterotrimer dissociation sensor10 were previously described. The expression plasmid encoding N-terminally HA-tagged GPR3 (cat. no.
#GPR003TN00) on a pcDNA3.1+ vector was obtained from the cDNA resource center (cdna.org). The Nluc and HaloTag in-serts were amplified with overhanging restriction sites from β2AAR- HaloTag/Nluc and ligated to the full-length C-terminus or inserted into icl3 of GPR3, respectively, to obtain the conformational biosensor GPR3-HaloTag/Nluc. Point mutants of GPR3-HaloTag/Nluc were generated using the GeneArt Site-directed Mutagenesis System (Thermo Fisher Scientific). All con-structs were verified by sequencing (Eurofins genomics).
Poly-D-lysine, polyethylenimin hydrochloride (linear; average Mn 20 000; PEI) , […], LPA , forskolin, NECA and bovine serum albumin (BSA) were obtained from Sigma Aldrich (Merck KGaA). Dulbecco's Modified Eagle's Medium (DMEM), Dul-becco's Phosphate -Buffered Saline (DPBS) and G -418 (Geneticin) were from Gibco. Diphenyleneiodonium chloride (DPI) and AF64394 were purchased from Tocris (Bio -Techne). The TMB (3, 3', 5, 5' tetramethyl benzidine) substrate reagent set was from BioLegend. The Nluc substrate furimazine and the red fluorescen t HaloTag dye, HaloTag® NanoBRET® 618 Ligand, were obtained in a single kit from Promega (cat. no. N1662). D-luciferin-sodium and the S1PR1 agonist III were from Med-ChemExpress. The Rluc substrate coelenterazine 400a was from NanoLight Technology (cat. no. 340 -10). White -wall, white - bottomed 96 -well, black -wall, black bottomed and transparent 96 -well microtiter plates were from Brand.
HEK293A cells were used for transient transfection and grown in Dulbecco’s modified Eagle’s medium (DMEM) supplemented with 2 mM glutamine, 10 % fetal calf serum, streptomycin (0.1 mg/mL), and penicillin (100 U/mL) at 37 °C with 5 % CO2. […]
Transient transfection and plating
Resuspended cells (300,000 cells/mL) were transfected in suspension with a total of 1 μg DNA/mL suspension using PEI (1 mg/ml stock solution; 3 μL PEI solution per μg DNA). For cAMP experiments with FRET- or BRET-based sensors, resuspended cells were transfected with 500 ng pcDNA, wildtype GPR3 or GPR3-HaloTag/Nluc constructs along with 500 ng of the FRET-or BRET-based cAMP sensor per mL cell suspension. For cAMP experiments with GloSensor™ 22F, resuspended cells were transfected with 250 ng pcDNA or GPCR along with 500 ng of a 1:1 mix of pcDNA with the GloSensor™ 22F per mL cell sus-pension. Cells mixed with the transfection reagents were seeded onto poly-D-lysine–precoated, 96-well plates and grown for 48 h at 37 °C with 5 % CO2. Stable α2AAR-, β2AR- or GPR3-HaloTag/Nluc expressing cells were seeded 24 h before the experi-ment at a density of 800,000 cells/mL into white 96-well plates. To monitor changes in BRET in with conformational GPCR […]

[1] = 30 μM pretreatment, cells coexpressing GPR3

T1 sequence (P46089 whole entry): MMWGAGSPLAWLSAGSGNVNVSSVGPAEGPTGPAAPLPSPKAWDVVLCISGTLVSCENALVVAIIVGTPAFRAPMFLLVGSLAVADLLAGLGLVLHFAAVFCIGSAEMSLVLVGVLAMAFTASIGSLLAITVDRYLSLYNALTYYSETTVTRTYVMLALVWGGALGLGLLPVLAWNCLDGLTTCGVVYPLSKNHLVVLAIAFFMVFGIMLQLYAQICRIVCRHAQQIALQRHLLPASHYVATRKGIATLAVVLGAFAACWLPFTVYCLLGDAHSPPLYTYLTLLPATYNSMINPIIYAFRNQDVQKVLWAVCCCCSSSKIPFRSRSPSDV

effect of pretreatment on AF64394 response in cAMP assay [1]	effect of pretreatment on DPI-induced cAMP generation [1]	Compound	GPR3-dependent change in cAMP
no effect on the effect of AF64394	inhibited DPI-induced cAMP generation	N=c1n(Cc2ccccc2)c2ccccc2n1CC1CC1 [compound 33]	
		N=c1n(Cc2ccccc2)c2ccccc2n1CC(O)COc1ccc(Cl)cc1 (stereo not shown) [compound 52]	induced GPR3-dependent changes in cAMP concentrations
		Cc1ccc(NC(=O)CN2CCN(C(=O)CCc3ccc(Cl)cc3)CC2)cc1 [compound 115]	modulates the conformation of GPR3 but not GPR3-dependent cAMP production
